Read-outs that look alike come from different tables or passages of the source.
How the values were obtained:
[1] = system: coronary arteries of ovariectomized female rhesus monkeys (serotonin + U46619 induced vasospasm); experiment: Drug-induced (serotonin + U46619) coronary vasospasm in ovariectomized rhesus monkeys, angiography; type: in vivo, rhesus monkeys (Macaca mulatta); details: for Monkeys suffering a vasospasm during the study: estriol cream treated ovariectomized monkeys, 12 step intracoronary serotonin+U46619 injection protocol
Description: The monkeys were entered into the study no less than 3 months after ovariectomy.
Angiography at the Dotter Institute, after overnight fasting, began with preanesthesia with ketamine (10 mg/kg body weight intramuscular), intubation with an endotracheal tube and a light surgical plane of anesthesia with isoflurane (induced at 1.5% to 3% maintained at 0.75% to 1.25%), vaporized with 33% nitrous oxide and 67% oxygen, or with 100% oxygen. Bilateral femoral intraarterial 3F catheters allowed for coronary catheterization and continuous recording of systemic arterial blood pressure and heart rate, which were maintained close to the initial anesthetic value for each monkey. Intravenous heparin (1,000 U) was injected, and up to 120 ml of pyruvated Ringer's solution and 0 to 50 ml of dextran solution were used (as needed) to maintain diastolic blood pressure ≧60 mm Hg. A heating pad assisted in maintenance of a body temperature decrease ≦2° C. of preanesthesia body temperature (monitored by rectal thermometer). An electrocardiogram (ECG) recorded on a Gould eight-channel recorder, cutaneous arterial oxygen saturation, respiratory rate and end-tidal CO2 were also monitored.
Entire experiments were recorded on videotape (with episodic fluoroscopic imaging and continuous voice annotation) to permit computerized quantitative coronary angiography. […]
Placement of the 3F catheter (except as noted later) was adjusted to provide sufficient filling with radio-opaque contrast medium, limited reflux and isolation of a branch of the coronary arterial tree. […] Fluoroscopic images were recorded on film using an OEC model 9800 digital x-ray system with fluoroscopic C-arm, digitally recorded, and evaluated in subsequent analysis. All procedures including a brief 0.2 ml injection of Hexabrix for optimal quantitative angiography were recorded on videotape for subsequent computer analysis. […]
After 4 weeks of daily treatment with 0.2 mg/kg of the estriol topical cream, the monkeys were studied by coronary catheterization, and reactivity was assessed by injection of serotonin (100 μM) and U46619 (1 μM).

[2] = Levels of estriol in saliva of human volunteers treated with skin cream; type: in vivo; details: topical; for concentration at 24 h: human volunteers, 24 hours after second application, read-out: Salivary concentration of estriol (group average)
Description: Four human volunteers applied one of three estriol skin cream formulations in a base of polyethylene glycol, sorbitol, and water. The formulations were as described above in Example 3, except that one formulation contained 0.1% estriol, a second formulation contained 0.5% estriol, and a third contained 1% estriol. Each volunteer applied […] of one of the formulations daily for 2 days for a total applied dosage of 4 mg, 20 mg, and 40 mg of estriol, respectively.
Concentrations of estriol in saliva was measured 24 hours after the second application of the estriol cream formulations. The group that applied the 0.1% estriol averaged a salivary concentration of about 300 pg/ml. The 0.5% group averaged about 1500 pg/ml. The 1%group averaged about 4000 pg/ml.
In addition, salivary concentration of estriol was measured ten minutes following the application of 20 mg of estriol in skin cream. A concentration of 10 ng/ml was found, indicating rapid absorption.

[3] = Steroid levels in plasma and urine of estriol cream treated monkeys; details: urine collected just prior to cardiac catheterization after 4 weeks daily 0.3% estriol topical cream; n = 5

concentration at 24 h ([2]; 0.1% estriol skin cream, 4 ml daily for 2 days (4 mg)): ~0.3 ng/mL
concentration at 24 h ([2]; 0.5% estriol skin cream, 4 ml daily for 2 days (20 mg)): ~1.5 ng/mL
concentration at 24 h ([2]; 1% estriol skin cream, 4 ml daily for 2 days (40 mg)): ~4 ng/mL
concentration at 10 min ([2]; human, ten minutes following application of 20 mg of estriol in skin cream, read-out: Salivary concentration of estriol): 10 ng/mL
E3 absorbed, urine (total) [3]: ***2412 +/− 316 (n = 5) ng/ml
SMILES: C[C@]12CC[C@@H]3c4ccc(O)cc4CC[C@H]3[C@@H]1C[C@@H](O)[C@@H]2O [Estriol]
Monkeys suffering a vasospasm during the study [1]: None of the monkeys
Monkeys suffering a vasospasm during the study ([1]; listed as E3): none of the E3 treated monkeys showed a vasospasm
Vasospasm criteria met (incidence) ([1]; ovariectomized monkeys, 4 weeks daily 0.3% estriol topical cream (0.2 mg/kg), intracoronary serotonin 100 μM + U46619 1 μM, criteria <33% of control diameter for >5 minutes): 0/6

Source: patent US20030186954A1, “Estriol to treat and prevent cardiovascular disease” (priority 2002, published 2003)
